Measurements reported in patent US9371317B2, “Sweet flavor modifier” (SENOMYX, INC., priority 2013, dated 2016).

How the values were obtained:
human panelists [1] = test: Enhancement of sucrose at pH 2.8: paired comparison taste test, 6% sucrose+compound vs. 10%, 11% or 12% sucrose; assay type: in vivo
Procedure: (§1) Test samples containing experimental compounds are presented in pairs to the panelist and they are asked to determine which of the sample is sweeter. […] A group of 10 to 16 or more panelists participated in each test. Subjects refrained from eating or drinking (except water) for at least 1 hour prior to the test. Subjects rinsed with water several times to clean the mouth.
(§2) Taste tests were performed with sucrose or HFCS as the sweetener in the presence or absence of compound. A 0.2% stock solution of compound in water with sodium bicarbonate was prepared and then this stock solution was diluted in the final sample to achieve the targeted final concentration of compound. Taste samples were also prepared in a low sodium phosphate buffer (pH 7.1; “LSB”) lacking sucrose or HFCS to evaluate the taste of the compound alone. Low sodium phosphate buffer consists of 0.3 mM KCl, 0.5 mM Na2HPO4, and 0.175 mM KH2PO4. Sample volumes are usually 20 ml.
(§3) In one paired comparison test, the panelist is presented with two different samples and asked to identify the sample which is sweeter. The samples within a paired comparison test are presented in a randomized, counterbalanced order. Panelists have up to a 1 minute delay between taste tests to clear the mouth of any tastes. […]

human panelists [2] = test: Enhancement of HFCS at pH 2.8: paired comparison taste test, 6% HFCS+compound vs. 8% or 9% HFCS; assay type: in vivo; settings: 20 ppm compound in 6% HFCS
Procedure: as §1, §2, §3

human panelists [3] = test: Sweetness threshold: paired comparison taste test, LSB+compound at pH 7.1 vs. 1% sucrose; assay type: in vivo; settings: 25 ppm compound in LSB
Procedure: as §1, §2, §3

human panelists [4] = test: Enhancement of sucrose at pH 7.1: paired comparison taste test, 6% sucrose+compound vs. 10%, 11% or 12% sucrose; assay type: in vivo; settings: 10 ppm compound in 6% sucrose
Procedure: as §1, §2, §3

NC1=NS(=O)(=O)Nc2cccc(OCC3(NC(=O)c4ccncc4)CCCC3)c21 [Example 9, N-(1-(((4-amino-2,2-dioxido-1H-benzo[c][1,2,6]thiadiazin-5-yl)oxy)methyl)cyclopentyl)isonicotinamide]
melting point: > 250 °C

Cc1cc(C(=O)NC(C)(C)COc2cccc3c2C(N)=NS(=O)(=O)N3)ccn1 [Example 2, N-(1-((4-amino-2,2-dioxide-1H-benzo[c][1,2,6]thiadiazin-5-yl)oxy)-2-methylpropan-2-yl)-2-methylisonicotinamide]
melting point: 238 to 240 °C

CC(C)(COc1cccc2c1C(N)=NS(=O)(=O)N2)NC(=O)c1ccncc1 [Compound A1, N-(1-(4-amino-2,2-dioxide-1H-benzo[c][1,2,6]thiadiazin-5-yloxy)-2-methylpropan-2-yl)isonicotinamide]
Sucrose equivalence of 6% sucrose + compound (human panelists [1]; 5 ppm compound in 6% sucrose): 5 ppm in 6% sucrose is equivalent to 11% sucrose
Sucrose equivalence of 6% sucrose + compound (human panelists [1]; 10 ppm compound in 6% sucrose): 10 ppm in 6% sucrose is equivalent to 12% sucrose
HFCS equivalence of 6% HFCS + compound (human panelists [2]): 20 ppm in 6% HFCS is equivalent to 9% HFCS
melting point: 235 to 238 °C
Sweetness of compound alone vs. 1% sucrose (human panelists [3]): 25 ppm equivalent to 1% sucrose
Sucrose equivalence of 6% sucrose + compound (human panelists [4]): 10 ppm in 6% sucrose is equivalent to 10% sucrose
